In the first test the test system is frill lettuce. The test is described as follows: Frill lettuce hydroponic cultivation test, root dry weight. The note with it: hydroponics, 60 days cultivation, percentage with non-added group root dry weight as 100%, vitalizer 50-100 ppm by mass. It is filed as in vivo. As to the method:
Each oligosaccharide prepared in [1. Preparation of oligosaccharide] and each amino acid prepared in [2. Preparation of amino acids] were dissolved in water while stirring with a stirrer in a compositional ratio to 1000 times the plant vitalizer concentration (ppm by mass) in Comparative Examples 1 and 2 and Examples 1 and 6 to 7 listed in the tables, after which the bacteria were removed with a 0.45 μm filter, to obtain plant vitalizer stock solutions.
In the test groups, 150 g of each of the plant vitalizer stock solutions under different conditions was added to and dispersed in 150 L of culture solution prepared for hydroponics (1000-fold dilution), and cultivation was started for each of 120 varieties at a temperature of 20 to 22° C. Cultivation was carried out for a total of 60 days, with a total of 5 times every week after beginning further addition of 150 g of plant vitalizer stock solution, and the root dry weights of the frill lettuce were measured.
The root dry weights were determined by cutting the root parts, drying the cut roots with a constant temperature dryer for 12 hours at 50° C., and then measuring the weights.
The root dry weights in Table 1 are percentages (%) with respect to 100% as the root dry weight in the non-added group without plant vitalizer addition.
Regarding `NCC(=O)O` [Comparative Example 2, Glycine], the “Increase in root dry weight with respect to non-added group (measured n = 5)” value was determined as 112%.

The test system of another test is komatsuna. The experiment in a line: Evaluation of komatsuna elicitor activity (glucanase activity measurement). The settings on record: komatsuna grown 6 days on MS agar medium containing plant vitalizer; glucanase activity (Abs590) of leaf extract; control = Comparative Example 3 without vitalizer. It is filed as in vivo. The procedure:
(i) The plant is sampled and pretreated; (ii) a calibration curve is drawn using BSA as the protein standard (using absorbance at a wavelength (600 nm) in a dye binding method); (iii) the protein concentration of the specimen prepared in (i) is measured; (iv) the glucanase activity of the specimen prepared in (i) is measured.
Each oligosaccharide prepared in [1. Preparation of oligosaccharide] and each amino acid prepared in [2. […] Each stock solution was diluted 1000-fold with water and used for the following cultivation test.
Murashige and Skoog (MS) agar medium was used for raising of the komatsuna.
High-pressure steam sterilized MS medium was transferred into a plant box on a clean bench and thoroughly cooled, and then komatsuna (“Wakami”, Sakata Seed Corp.) were seeded in a count of 10 each. They were then grown for 6 days with long-day conditions of 24 hours in a lighted room at 22° C.
After adding 300 μl of the prepared protein extraction buffer into a 1.5 ml tube equipped with a Biomasher (Nippi, Inc.), leaves (plant body) sampled and cut with scissors to approximately 4×4 mm were added. The procedure was carried out 5 times for each sample. A stirring rod was then rotated by hand to break up the plant body until the solid portion was generally no longer visible. Centrifugal separation was carried out under conditions of 15,000×g, 10 minutes, 4° C., and the aqueous layer was collected into a fresh 1.5 ml tube to prepare a liquid extract.
A 2 mg/ml portion of bovine serum albumin (BSA) of known purity was serially diluted (1/2, 1/4, 1/8, 1/16, 1/32 and 1/64 dilution) to prepare standards. The prepared standards were used to determine the average absorbance at 600 nm (Abs600), and a calibration curve was drawn (n=3). After injecting 300 μl of Coomassie Brilliant Blue (CBB) solution into a 96-well plate, 6 μl of the prepared liquid extract was added. The Abs600 was then measured. The blank used was MilliQ. The absorbance of the liquid extract was fitted onto the calibration curve drawn with the 2 mg/ml of serially diluted BSA, to determine the protein concentration.
Dilution was carried out to a constant liquid extract concentration using the determined values, and the diluted extract was used for the following glucanase activity measurement.
In a 1.5 ml tube there were mixed 100 μl of a B-HS substrate solution prepared by suspending one tablet of B-HS reagent (Megazyme Co.) in 10 ml of MilliQ, 50 μl of 0.2 M phosphate buffer solution (pH 6.0) and 50 μl of the previously prepared diluted solution or ultrapure water (blank), to prepare samples for each of the Comparative Examples and Examples. Enzyme reaction was conducted for 1 hour and 30 minutes in a water bath at 30° C., shaking the sample well every 15 minutes. A 100 μl portion of 0.2 N NaOH as reaction stop solution (total: 300 μl) was added to stop the reaction.
As for `C[C@H](N)C(=O)O` [compound 9, Alanine], the “Elicitor activity (compared to control as 100)” value was found to be 72. The same measure, in the same setting: the result for `N[C@@H](CCC(=O)[O-])C(=O)[O-].[Na+].[Na+]` [compound 7, Sodium glutamate] reads 82. For `NCCCC[C@H](N)C(=O)O` [Comparative Example 6, Lysine], the “Elicitor activity (compared to control as 100)” value turned out to be 104. Still for that read-out and setting: the result for `NCC(=O)O` [compound 5, Glycine] reads 141; that for `N=C(N)NCCC[C@H](N)C(=O)O` [compound 10, Arginine], 79.

In the case of `N[C@@H](Cc1c[nH]cn1)C(=O)O` [compound 8, Histidine], the “Elicitor activity (compared to control as 100)” value was determined as 89.

The next test relates to komatsuna. The experiment in a line: Measurement of komatsuna fresh weight after foliar application. The format is in vivo. The settings on record: komatsuna raised 34 days in soil, vitalizer applied to leaves at one-week intervals; control = Comparative Example 11 without vitalizer. The procedure: Each oligosaccharide prepared in [1. […] Each stock solution was diluted 1000-fold with water and used for the following cultivation test. A sample was prepared with […] Corp.) as the plant crop, organic vegetable soil (Hirota Shoten) as the soil and Shin-Taki Organic Liquid Fertilizer #3 (Taki Chemical Co., Ltd.) as the fertilizer. After sprouting the plants on filter paper, they were planted into a 25-hole connected pot (280×280 mm overall, with holes of 50×50×50 mm) containing culturing soil and fertilizer.
As for `NCC(=O)O` [compound 13, Glycine], the “Fresh weight (compared to control as 100)” value is given as 102%. Still for that read-out and setting: the result for `N[C@@H](Cc1c[nH]cn1)C(=O)O` [compound 12, Histidine] reads 92%; that for `N[C@@H](CCC(=O)[O-])C(=O)[O-].[Na+].[Na+]` [compound 14, Sodium glutamate], 89%.

Values taken from patent US12478001B2, “Plant activator containing amino acid or salt thereof, and oligosaccharide, and use thereof” (priority 2019, dated 2025).
